Experiments:
[1] = system: LS174 CRC cells; experiment: CRC cell proliferation assay (Vi-Cell); assay type: cell-based
Method: Luciferase and cell proliferation assay. HEK293T cells were transiently transfected in a 12-well plate with 0.2 μg of the Super8xTOPFlash reporter and 0.05 μg of Renilla luciferase reporter. Culture medium was changed after 12 h. After 6 h, cells were treated with DMSO or Wnt inhibitors for 12 h, and then treated with 25 mM LiCl or Wnt conditioned medium. After 12 h, cells were harvested and luciferase activity measured by Dual-luciferase Reporter Assay System (Promega, Madison Wis.). All conditions were done in triplicate and each experiment was carried out at least two times. For cell proliferation assay, CRC cells were treated with DMSO or inhibitors for 2d and 4d. The cell numbers and viability were analyzed by Vi-Cell Cell Viability Analyzer.
Western blot and cell proliferation assay. The activity of fluorinated N,N-dialkylaminostilbenes (FIDAS or FIDAS agents) on Wnt signaling activity in cancer cells were analyzed by Western blot with antibodies against Wnt target genes, such as c-Myc, Axin2. The effects of FlDAS agents on cancer cell growth were analyzed using Cell Viability Analyzer (Beckman Coulter, Vi-Cell XR). These assays have been described previously (see Zhang et al., J. of Med. Chem. 54, 1288-1297 (2011)).

[2] = system: β-catenin; experiment: β-catenin localization by immunofluorescence in LS174 cells; assay type: cell-based; conditions: 10 μM, 24 h, versus DMSO
Method: Immunofluorescence. Cells grown on cover glass were fixed by 4% paraformaldehyde for 20 min at room temperature. The cells were permeabilized with PBS containing 0.3% (w/v) Triton X-100 and blocked by 5% normal goat serum in PBS for 30 min. Anti-β-catenin antibody (1:300, Sigma, St. Louis, Mo.) was diluted in blocking solution and incubated with cells overnight. The cells were washed 3 times with PBS and further incubated with Alexa-488-labeled anti-rabbit IgG (1:500) diluted in PBS for 40 min. The cover glasses were washed, mounted on glass slides, viewed and photographed with an Olympus FW1000 confocal microscope. Cells grown on cover glass were treated with fluorescent compounds for 2 h, 6 h, 12 h and 24 h respectively. Treated cells were fixed by 4% paraformaldehyde for 20 min at room temperature. Then cells were washed 3 times with PBS and mounted on glass slides, viewed under the fluorescence of 405 nm-wavelength and photographed with an Olympus FW1000 confocal microscope.
Nevertheless, compound 4s lends itself well to a mechanistic study of the site of action of these compounds. LS174 cells were treated with 10 μM of compound 4s for 2 h, 6 h, 12 h, and 24 h. The cells were fixed and analyzed by confocal fluorescence microscopy. […] The cells were fixed and β-catenin localization analyzed by immunofluorescence. […]

[3] = molecular target: MAT2A (Homo sapiens, UniProt P31153); experiment: Cell based SAM and SAH analysis in LS174 colon cancer cells (LC-MS/MS); design: endogenous in cells; host or cells: LS174T; conditions: 10 μM of 4r versus 30 μM of resveratrol
Method: SAM and SAH analysis by LC-MS/MS. The LC-MS/MS system consisted of two Varian ProStar 210 LC Pumps coupled with a Varian 1200L triple quadrupole mass spectrometer. The separation was performed on a Hypercarb column (50 mm×2.1 mm, […], Thermo Scientific #35003-052130). Gradient elution started with 98% solution A (0.1% formic acid in water), followed by an increase to 38% solution B (0.1% formic acid in acetonitrile) in 8 min. The column was than flushed with 90% B for 5 min and regenerated with 98% A for another 8 min. The flow rate was 0.25 mL/min. Between the 3rd and 11th min, the eluent was switched to the ion source of the mass spectrometer. The precursor product transitions for SAM (m/z 399→250), SAH (m/z 385→250) and [d-4]-SAH (m/z 389→136) were monitored. The optimized ion source parameters were: Capillary Voltage: 32 V for both SAM and SAH, Collision energy: 9 V and 7V for SAM and SAH, respectively, Needle voltage: 5000 V and the Shield voltage: 600V. Nitrogen was used as the drying gas at a temperature of 300° C. and the interface heater was set to 50° C. The drying gas and nebulizing gas were set to 20 and 50 psi, respectively.
Cell based SAM analysis. […] 5 ul of supernatants were analyzed by LC-MS/MS using a modified method based on a previous publication (see Krijt et al., J Chromatogr B Analyt Technol Biomed Life Sci 877, 2061-6, (2009)). […]

SMILES: CN(C)c1ccc(/C=C/c2c(F)cccc2F)cc1 [4r, (E)-4-(2,6-Difluorostyryl)-N,N-dimethylaniline]
- LS174 cell proliferation at nanomolar concentrations ([1]; 0.1, 0.3 and 1 μM (FIG. 7A)): inhibited LS174 cell proliferation at nanomolar concentrations
- CRC cell growth inhibition compared with other compounds ([1]; cell proliferation assay): more potent than compound 4e
- nuclear β-catenin levels [2]: decreased
- MAT2A activity (SAM levels) in LS174 cells versus resveratrol [3]: more significantly than 30 μM of resveratrol
